Legend:
[1] = biological target: T1, 5-hydroxytryptamine receptor 3A (Rattus norvegicus, UniProt P35563)
T1 sequence (P35563 whole entry): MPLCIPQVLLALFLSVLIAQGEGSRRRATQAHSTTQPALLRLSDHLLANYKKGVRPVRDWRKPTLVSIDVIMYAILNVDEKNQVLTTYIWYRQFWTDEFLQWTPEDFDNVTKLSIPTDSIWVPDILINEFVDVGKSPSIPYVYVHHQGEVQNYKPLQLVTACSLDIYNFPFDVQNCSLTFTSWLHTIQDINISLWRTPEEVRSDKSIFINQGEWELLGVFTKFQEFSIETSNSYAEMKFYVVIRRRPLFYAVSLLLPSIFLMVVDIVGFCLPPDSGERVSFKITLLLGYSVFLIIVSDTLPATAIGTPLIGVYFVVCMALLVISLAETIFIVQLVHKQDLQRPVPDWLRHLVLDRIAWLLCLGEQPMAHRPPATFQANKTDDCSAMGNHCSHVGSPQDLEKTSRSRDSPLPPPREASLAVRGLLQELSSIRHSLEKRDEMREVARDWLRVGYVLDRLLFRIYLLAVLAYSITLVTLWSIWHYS

[2] = biological target: 5-hydroxytryptamine receptor 1B (Rattus norvegicus, UniProt P28564)
[3] = biological target: T2, Muscarinic acetylcholine receptor M2 (Rattus norvegicus, UniProt P10980)
T2 sequence (P10980 whole entry): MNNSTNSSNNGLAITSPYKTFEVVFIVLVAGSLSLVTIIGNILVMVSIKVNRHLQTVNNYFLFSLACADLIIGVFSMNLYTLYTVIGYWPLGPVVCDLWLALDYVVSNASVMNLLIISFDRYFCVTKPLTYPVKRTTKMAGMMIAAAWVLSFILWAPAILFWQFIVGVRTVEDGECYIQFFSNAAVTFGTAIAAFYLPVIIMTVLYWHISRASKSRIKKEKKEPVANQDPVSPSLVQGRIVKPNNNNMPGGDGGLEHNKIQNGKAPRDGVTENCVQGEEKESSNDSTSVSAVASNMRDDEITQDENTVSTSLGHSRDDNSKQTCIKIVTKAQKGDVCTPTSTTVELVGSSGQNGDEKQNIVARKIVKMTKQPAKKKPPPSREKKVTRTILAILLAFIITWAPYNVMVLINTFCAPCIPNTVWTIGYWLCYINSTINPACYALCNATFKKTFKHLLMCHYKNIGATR

[4] = biological target: 5-hydroxytryptamine receptor 2A (Rattus norvegicus, UniProt P14842)
[5] = biological target: T3, Solute carrier family 22 member 2 (Rattus norvegicus, UniProt Q9R0W2)
T3 sequence (Q9R0W2 whole entry): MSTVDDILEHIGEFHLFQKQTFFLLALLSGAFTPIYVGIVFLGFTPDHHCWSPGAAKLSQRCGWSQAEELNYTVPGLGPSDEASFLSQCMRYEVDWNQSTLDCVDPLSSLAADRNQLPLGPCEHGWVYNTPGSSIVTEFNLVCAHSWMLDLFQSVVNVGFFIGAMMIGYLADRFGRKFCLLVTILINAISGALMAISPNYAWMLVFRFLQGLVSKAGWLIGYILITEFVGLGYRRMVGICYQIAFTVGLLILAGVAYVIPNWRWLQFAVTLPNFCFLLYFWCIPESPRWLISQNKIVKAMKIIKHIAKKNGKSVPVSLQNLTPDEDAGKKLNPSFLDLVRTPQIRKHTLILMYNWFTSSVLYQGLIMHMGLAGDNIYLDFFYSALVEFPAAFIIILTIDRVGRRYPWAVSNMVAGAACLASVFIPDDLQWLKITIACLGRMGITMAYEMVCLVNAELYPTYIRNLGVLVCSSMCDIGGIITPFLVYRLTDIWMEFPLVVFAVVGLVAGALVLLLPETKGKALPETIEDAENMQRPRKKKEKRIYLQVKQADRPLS

[6] = biological target: T4, Solute carrier family 22 member 1 (Rattus norvegicus, UniProt Q63089)
T4 sequence (Q63089 whole entry): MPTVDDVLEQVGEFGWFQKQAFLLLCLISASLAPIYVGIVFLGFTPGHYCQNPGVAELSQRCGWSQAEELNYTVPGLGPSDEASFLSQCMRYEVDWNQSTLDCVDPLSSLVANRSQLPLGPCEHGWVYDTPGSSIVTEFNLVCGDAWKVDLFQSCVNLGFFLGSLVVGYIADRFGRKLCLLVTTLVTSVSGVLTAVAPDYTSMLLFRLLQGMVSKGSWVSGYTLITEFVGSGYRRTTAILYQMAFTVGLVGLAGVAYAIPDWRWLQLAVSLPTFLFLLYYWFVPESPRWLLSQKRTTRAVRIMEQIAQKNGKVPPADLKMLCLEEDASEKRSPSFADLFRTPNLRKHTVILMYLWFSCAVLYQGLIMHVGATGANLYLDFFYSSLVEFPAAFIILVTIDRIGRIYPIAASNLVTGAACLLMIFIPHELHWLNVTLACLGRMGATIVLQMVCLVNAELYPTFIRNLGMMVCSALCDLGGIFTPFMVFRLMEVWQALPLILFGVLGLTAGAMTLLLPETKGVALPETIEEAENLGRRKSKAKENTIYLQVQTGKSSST

[7] = biological target: Beta-2 adrenergic receptor (Rattus norvegicus, UniProt P10608)
[8] = biological target: T5, Alpha-1A adrenergic receptor (Rattus norvegicus, UniProt P43140)
T5 sequence (P43140 whole entry): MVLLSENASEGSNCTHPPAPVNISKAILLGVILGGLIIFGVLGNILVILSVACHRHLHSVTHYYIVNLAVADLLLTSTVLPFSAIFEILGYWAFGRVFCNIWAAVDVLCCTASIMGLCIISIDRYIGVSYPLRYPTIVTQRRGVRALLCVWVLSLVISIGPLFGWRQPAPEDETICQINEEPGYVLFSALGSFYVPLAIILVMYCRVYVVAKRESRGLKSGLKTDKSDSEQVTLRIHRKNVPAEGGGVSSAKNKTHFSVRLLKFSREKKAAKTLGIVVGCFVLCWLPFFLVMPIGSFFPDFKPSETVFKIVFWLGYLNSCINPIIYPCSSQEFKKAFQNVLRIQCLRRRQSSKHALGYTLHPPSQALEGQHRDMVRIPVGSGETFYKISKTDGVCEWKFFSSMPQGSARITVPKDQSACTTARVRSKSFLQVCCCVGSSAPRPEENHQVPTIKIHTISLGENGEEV

[9] = biological target: T6, Alpha-2C adrenergic receptor (Rattus norvegicus, UniProt P22086)
T6 sequence (P22086 whole entry): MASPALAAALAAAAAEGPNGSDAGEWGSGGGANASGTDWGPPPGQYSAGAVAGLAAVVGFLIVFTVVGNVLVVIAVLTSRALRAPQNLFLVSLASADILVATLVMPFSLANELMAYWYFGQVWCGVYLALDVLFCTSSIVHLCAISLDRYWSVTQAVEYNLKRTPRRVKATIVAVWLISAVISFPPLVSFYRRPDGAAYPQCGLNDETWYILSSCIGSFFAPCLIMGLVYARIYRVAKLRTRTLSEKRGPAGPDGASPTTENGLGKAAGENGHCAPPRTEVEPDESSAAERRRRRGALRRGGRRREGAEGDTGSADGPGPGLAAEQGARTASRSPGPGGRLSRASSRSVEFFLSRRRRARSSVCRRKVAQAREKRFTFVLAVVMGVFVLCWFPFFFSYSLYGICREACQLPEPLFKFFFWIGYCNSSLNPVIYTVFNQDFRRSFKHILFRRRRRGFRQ

[10] = biological target: T7, 5-hydroxytryptamine receptor 1A (Rattus norvegicus, UniProt P19327)
T7 sequence (P19327 whole entry): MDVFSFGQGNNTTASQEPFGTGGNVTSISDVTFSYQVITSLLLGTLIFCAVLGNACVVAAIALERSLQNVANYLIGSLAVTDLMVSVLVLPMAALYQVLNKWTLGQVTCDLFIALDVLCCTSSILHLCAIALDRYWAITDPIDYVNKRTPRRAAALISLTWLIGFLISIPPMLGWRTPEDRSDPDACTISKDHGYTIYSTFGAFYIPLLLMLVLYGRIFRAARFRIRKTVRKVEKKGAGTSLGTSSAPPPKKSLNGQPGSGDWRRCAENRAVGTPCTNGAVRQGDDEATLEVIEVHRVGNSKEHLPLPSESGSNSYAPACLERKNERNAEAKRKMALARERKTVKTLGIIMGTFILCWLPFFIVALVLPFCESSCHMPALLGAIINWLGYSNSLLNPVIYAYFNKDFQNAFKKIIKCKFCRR

[11] = biological target: Gamma-aminobutyric acid receptor subunit alpha-1 (Rattus norvegicus, UniProt P62813)
Chain of Gamma-aminobutyric acid receptor subunit alpha-1 (P62813 whole entry): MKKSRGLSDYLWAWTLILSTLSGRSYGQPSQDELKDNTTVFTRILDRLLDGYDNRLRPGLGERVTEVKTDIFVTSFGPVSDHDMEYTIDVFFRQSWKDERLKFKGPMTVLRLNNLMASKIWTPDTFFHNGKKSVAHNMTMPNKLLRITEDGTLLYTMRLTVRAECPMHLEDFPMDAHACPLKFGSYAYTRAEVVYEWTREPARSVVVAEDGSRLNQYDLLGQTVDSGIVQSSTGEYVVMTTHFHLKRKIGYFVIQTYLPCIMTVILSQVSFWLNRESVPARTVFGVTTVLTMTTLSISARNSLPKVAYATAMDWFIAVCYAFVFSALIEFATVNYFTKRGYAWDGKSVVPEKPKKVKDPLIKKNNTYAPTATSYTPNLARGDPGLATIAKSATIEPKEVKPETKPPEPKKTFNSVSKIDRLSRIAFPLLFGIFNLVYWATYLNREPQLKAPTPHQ

Chain of 5-hydroxytryptamine receptor 1B (P28564 whole entry): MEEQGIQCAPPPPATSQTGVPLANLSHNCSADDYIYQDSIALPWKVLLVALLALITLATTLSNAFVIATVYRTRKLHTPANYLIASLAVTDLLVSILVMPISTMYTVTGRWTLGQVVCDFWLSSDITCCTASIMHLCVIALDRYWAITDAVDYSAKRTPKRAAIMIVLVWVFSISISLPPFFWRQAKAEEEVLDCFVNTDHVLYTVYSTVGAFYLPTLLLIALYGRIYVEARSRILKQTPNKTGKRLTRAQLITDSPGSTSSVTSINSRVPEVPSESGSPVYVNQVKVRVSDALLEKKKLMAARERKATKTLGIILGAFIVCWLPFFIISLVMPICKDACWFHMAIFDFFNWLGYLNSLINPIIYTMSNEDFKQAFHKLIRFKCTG
Chain of Beta-2 adrenergic receptor (P10608 whole entry): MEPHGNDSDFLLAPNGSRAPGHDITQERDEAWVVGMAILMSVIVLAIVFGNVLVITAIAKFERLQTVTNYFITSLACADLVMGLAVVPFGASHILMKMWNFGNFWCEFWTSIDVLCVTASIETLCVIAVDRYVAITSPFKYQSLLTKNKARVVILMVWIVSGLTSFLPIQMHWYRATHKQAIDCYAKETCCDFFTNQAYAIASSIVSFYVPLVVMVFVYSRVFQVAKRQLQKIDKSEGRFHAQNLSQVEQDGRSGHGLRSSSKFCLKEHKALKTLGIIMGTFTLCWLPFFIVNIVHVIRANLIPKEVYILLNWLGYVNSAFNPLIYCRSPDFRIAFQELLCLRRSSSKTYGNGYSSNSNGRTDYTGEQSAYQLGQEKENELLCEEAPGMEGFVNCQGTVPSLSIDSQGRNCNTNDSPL
Chain of 5-hydroxytryptamine receptor 2A (P14842 whole entry): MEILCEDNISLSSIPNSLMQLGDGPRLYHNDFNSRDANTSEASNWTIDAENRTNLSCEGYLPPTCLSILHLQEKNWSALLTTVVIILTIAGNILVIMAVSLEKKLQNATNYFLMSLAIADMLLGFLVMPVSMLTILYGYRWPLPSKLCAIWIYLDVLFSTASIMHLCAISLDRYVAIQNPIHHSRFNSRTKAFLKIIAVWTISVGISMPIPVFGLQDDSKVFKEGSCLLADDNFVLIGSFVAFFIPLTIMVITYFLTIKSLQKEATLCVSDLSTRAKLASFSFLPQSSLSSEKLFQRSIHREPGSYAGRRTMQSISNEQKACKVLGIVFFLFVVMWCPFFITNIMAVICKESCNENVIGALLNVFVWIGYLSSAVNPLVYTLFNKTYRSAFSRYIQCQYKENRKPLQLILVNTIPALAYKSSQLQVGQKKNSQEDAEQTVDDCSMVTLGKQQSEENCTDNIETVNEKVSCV

SMILES: c1ccc2c(N3CCNCC3)cccc2c1
- Ki [1]: 0.11 µM

SMILES: Clc1ccc(N2CCNCC2)cc1
- Ki [1]: 0.12 µM

SMILES: CN(C)C[C@@H]1C2CCC(CC2)[C@@H]1c1ccc(Cl)c(Cl)c1 [NSC_398]
- Ki [1]: 0.03 µM

SMILES: COc1cccc2ccc(N3CCN(C)CC3)nc12 [8-Methoxy-N-methylquipazine]
- Ki [1]: 0.44 µM

SMILES: CCCN(CCC)c1ccc2ccccc2n1
- Ki [1]: 1 µM

SMILES: COc1ccc(N2CCNCC2)cc1 [4-METHOXYPHENYLPIPERAZINE]
- Ki [1]: 0.34 µM

SMILES: c1ccc2nc(N3CCNCC3)ccc2c1 [2-Piperazin-1-yl-quinoline (Quipazine)]
- Ki [2]: 0.2 µM
- Ki [1]: 0.0015 µM
- Ki [3]: > 10 µM
- Ki [4]: 0.18 µM
- Ki [5]: 5 µM
- Ki [6]: > 10 µM
- Ki [7]: 2.9 µM

SMILES: CCCN1CCN(c2ccc3ccccc3n2)CC1 [N-Propylquipazine]
- Ki [1]: 0.015 µM

SMILES: CN1CCN(c2nc3ccccc3c(=O)[nH]2)CC1 [NSC_63211]
- Ki [1]: 0.27 µM

SMILES: c1ccc(C2CCNCC2)cc1
- Ki [1]: 0.44 µM

SMILES: Clc1cccc(N2CCNCC2)c1 [mCPP]
- Ki [1]: 0.02 µM

SMILES: c1cnc(N2CCNCC2)nc1 [1-PP]
- Ki [1]: 4 µM

SMILES: Cc1cccc2ccc(N3CCNCC3)nc12 [QUIPAZINE,8-Me]
- Ki [8]: > 10 µM
- Ki [2]: > 10 µM
- Ki [1]: 0.0047 µM
- Ki [9]: 3.8 µM
- Ki [3]: > 10 µM
- Ki [4]: 0.55 µM
- Ki [10]: 1.7 µM
- Ki [11]: > 10 µM
- Ki [7]: > 10 µM

SMILES: COc1cccc2ccc(N3CCNCC3)nc12
- Ki [1]: 0.36 µM

SMILES: COc1ccccc1N1CCNCC1
- Ki [1]: 0.324 µM

SMILES: c1ccc2nc(N3CCCCC3)ccc2c1
- Ki [1]: 1 µM

SMILES: c1ccc(N2CCNCC2)cc1
- Ki [1]: 0.43 µM

SMILES: Clc1cncc(N2CCNCC2)n1 [L-630,571]
- Ki [1]: 0.029 µM

Reference: BindingDB's records for doi:10.1016/0014-2999(89)90802-9 (Virginia Commonwealth University, 1989)
